Assay results as given in patent US5308840A, “Substituted or unsubstituted benzhydryl heteroalkyl-substituted aminophenol compounds and pharmaceutical compositions thereof” (Green Cross Corporation, priority 1991, dated 1994).
Values after ≈ are worked out from the molar mass of the structure shown.

Legend:
[1] = test system: lipoperoxide production in rat cerebral tissues; assay: Inhibition of lipoperoxide production in rat cerebral tissues (TBA reaction in cerebral tissue homogenate); assay type: biochemical; conditions: 37° C., 120 minutes, test concentrations 10, 1, 0.1, 0.01, 0.001 μg/ml, absorbance 535 nm, least square method
Protocol: Inhibition of lipoperoxide production in rat cerebral tissues
(1) Preparation of cerebral tissue homogenate
A rat was slaughtered with carbon dioxide, and immediately after blood sampling from the heart, brain was removed and weighed. A 5% (w/v) tissue homogenate was prepared by a homogenizer with PBS (pH 7.3). Homogenation was conducted two times for 15 seconds (scale 10) while cooling.
(2) Inhibition of lipoperoxide production in rat cerebral 4issues.
Each of the test drugs (50 μl, concentration 10, 1, 0.1, 0.01, 0.001 μg/ml) was placed in a polypropylene tube, to which was added cerebral tissue homogenate (1 ml), followed by incubation at 37° C. in a thermobath for 120 minutes. Thereafter, 1% phosphoric acid (0.3 ml), 10% phosphotungstic acid (0.2 ml) and 0.67% TBA (tiobarbituric acid) agent (1 ml) were added thereto while stirring as necessary, and immediately thereafter, TBA reaction was conducted in a boiling water bath for 20 minutes. The mixture was cooled in ice water for 5 minutes, and added with n-butanol (4 ml). After 10 minutes' shaking extraction, it was centrifuged at 3000 rpm and at room temperature (low temperature causes change of absorbance) for 10 minutes. The absorbance of the butanol layer (upper layer) was measured at a wavelength of 535 nm. The difference between the absorbance of the control incubated at 37° C. (added with dimethylsulfoxide only) and that of the control cooled at 2° C. (added with dimethylsulfoxide only) was taken as the amount of 100% lipoperoxide production, and the percent suppression of the drug was calculated from the following formula. [formula] wherein A is the difference of absorbance of 37° C. control and 2° C. control, and B is the difference of absorbance of a drug sample and 2° C. control. The IC50 (μg/ml) was calculated by least square method using the percent inhibition at each concentration.

[2] = test system: TPA-induced mouse ear edema; assay: Effect on TPA-induced mouse ear edema test; assay type: in vivo, male ICR mice; conditions: inhibition of ear edema (ear weight difference) vs control; TPA 1 μg/20 μl, topical; drug dissolved in TPA solution (100 μg/20 ml); 5 hours
Protocol: Effect on TPA-induced mouse ear edema test
Male ICR mice weighing about 20 g were etherized, and fixed at the dorsal position. TPA (12-O-tetradecanoylphorbol-13-acetate: phorbol 12-myristate-13-acetate, 1 μg/20 μl) dissolved in a mixed solution of acetone: pyridine: water (97:2:1) was coated on the left year while drying with a dryer. Five hours later, the mice were slaughtered by vertebral dislocation. The both ears were stamped out with a circle chisel (punch), and weighed. The weight difference between the both ears was taken as an index of the degree of edema, and the percent inhibition was calculated from the comparison with the control. Each drug was dissolved in TPA solution (100 μg/20 ml).

Row | IC50 [1] | SMILES | Inhibition (%) [2]
1 | 0.12 µg/mL (≈ 0.267 µM) | Cc1ccc(O)c(NCCCN2CCN(C(c3ccccc3)c3ccc(Cl)cc3)CC2)c1 (stereo not drawn) [Compound 15, 2-[3-[4-(4-chlorobenzhydryl)piperazino]propyl]amino-4-methylphenol] | 86.7%
2 | 0.066 µg/mL (≈ 0.13 µM) | Cc1cc(NCCCN2CCN(C(c3ccccc3)c3ccc(Cl)cc3)CC2)c(O)c(C(C)(C)C)c1 (stereo not drawn) [Compound 20, 6-tert-butyl-2-[3-[4-(4-chlorobenzhydryl)piperazino]propyl]amino-4-methylphenol] | 63.8%
3 | 0.013 µg/mL (≈ 0.028 µM) | Cc1ccc(O)c(NCCCN2CCCN(C(c3ccccc3)c3ccc(Cl)cc3)CC2)c1 (stereo not drawn) [Compound 17, 2-[3-[4-(4-chlorobenzhydryl)homopiperazino)propyl]amino-4-methylphenol] | 87.0%
4 | 0.44 µg/mL (≈ 0.894 µM) | Cc1ccc(O)c(N(CCCN2CCN(C(c3ccccc3)c3ccc(Cl)cc3)CC2)C(C)C)c1 (stereo not drawn) [Compound 21, 2-[N-[3-[4-(4-chlorobenzhydryl)piperazino]propyl]-N-isopropyl]amino-4-methylphenol] | 44.4%
5 | 0.038 µg/mL (≈ 0.0914 µM) | Cc1ccc(O)c(NCCCN2CCN(C(c3ccccc3)c3ccccc3)CC2)c1 [Compound 14, 2-[3-(4-benzhydrylpiperazino)propyl]amino-4-methylphenol] | 77.8%
6 | 0.16 µg/mL (≈ 0.367 µM) | CN(C)c1cc(CN2CCN(C(c3ccccc3)c3ccc(Cl)cc3)CC2)ccc1O (stereo not drawn) [Compound 7, 4-[4-(4-chlorobenzhydryl)piperazino]methyl-2-dimethylaminophenol] | 54.6%

More lines, now with the values behind:

Row | SMILES | IC50 [1] | Inhibition (%) [2]
7 | CN(C)CC=C(c1ccc(Cl)cc1)c1ccc(O)c(N(C)C)c1 [Compound 5, 1-(4-chlorophenyl)-3-dimethylamino-1-(3-dimethylamine-4-hydroxyphenyl)-1-propene] | 0.20 µg/mL (≈ 0.604 µM) | 75.0%
8 | Cc1ccc(O)c(NCCCN2CCC(C(O)(c3ccccc3)c3ccccc3)CC2)c1 [Compound 18, 2-[3-(4-hydroxydiphenylmethyl-1-piperidinyl)propyl]amino-4methylphenol] | 0.029 µg/mL (≈ 0.0673 µM) | 89.0%
9 | Cc1ccc(O)c(N(C)CCCN2CCN(C(c3ccccc3)c3ccccc3)CC2)c1 [Compound 16, 2-[N-[3-(4-benzhydrylpiperazino)propyl]-N-methyl]amino-4-methylphenol] | 0.30 µg/mL (≈ 0.698 µM) | 50.9%
10 | Cc1ccc(O)c(NCCCN2CCC(C(O)(c3ccccc3)c3ccc(Cl)cc3)CC2)c1 (stereo not drawn) [Compound 26, 2-[3-[4-(4-chlorophenyl)hydroxyphenylmethyl-1-piperidinyl]propyl]amino-4-methylphenol] | – | 97.5%
11 | CN(C)CCOC(c1ccc(Cl)cc1)c1ccc(O)c(N(C)C)c1 (stereo not drawn) [Compound 1, 2-[1-(4-chlorophenyl)-1-(3-dimethylamino-4-hydroxyphenyl)methoxy]-N,N-dimethylethanamine] | 0.39 µg/mL (≈ 1.12 µM) | –
12 | Cc1ccc(O)c(NC(C)CN2c3ccccc3Sc3ccccc32)c1 (stereo not drawn) [Compound 12, 2-[1-methyl-2-(phenothiazine-10-yl)ethyl]amino-4-methylphenol] | 0.086 µg/mL (≈ 0.237 µM) | 74.7%
13 | CN1CCN(C(c2ccc(Cl)cc2)c2ccc(O)c(N(C)C)c2)CC1 (stereo not drawn) [Compound 3, 4-[1-(4-chlorophenyl)-1-(4-methylpiperazino)]methyl-2-dimethylaminophenol] | – | 71.1%
14 | Cc1ccc(O)c(N(C)CCOC(c2ccccc2)c2ccccc2)c1 [Compound 10] | 0.23 µg/mL (≈ 0.662 µM) | –
15 | Cc1ccc(O)c(NCCCN2CCN(C(c3ccc(F)cc3)c3ccc(F)cc3)CC2)c1 [Compound 32, 2-[3-[4-(4,4'-difluorobenzhydryl)piperazino]propyl]amino-4-methylphenol] | 0.10 µg/mL (≈ 0.221 µM) | 64.1%
16 | CN(C)CCN(Cc1ccc(O)c(N(C)C)c1)c1ccccc1 [Compound 4, 2-dimethylamino-4-[N-(2-dimethylaminoethyl)-N-phenyl]aminomethylphenol] | – | 75.0%
17 | Cc1ccc(O)c(NCCCN2CCC(OC(c3ccccc3)c3ccccc3)CC2)c1 [Compound 19, 2-[3-(4-benzhydryloxy-1-piperidinyl)propyl]amino-4-methylphenol] | 0.036 µg/mL (≈ 0.0836 µM) | 85.5%
18 | CN(C)CCC(c1ccc(Cl)cc1)c1ccc(O)c(N(C)C)c1 (stereo not drawn) [Compound 6, 4-[1-(4-chlorophenyl)-3-dimethylaminopropyl]-2-dimethylaminophenol] | 0.31 µg/mL (≈ 0.931 µM) | 62.7%
19 | Cc1ccc(O)c(N(CCCN2CCC(C(O)(c3ccccc3)c3ccccc3)CC2)C(C)C)c1 [Compound 23, 2-[N-[3-(4-hydroxydiphenylmethyl-1-piperidinyl)propyl]-N-isopropyl]amino-4-methylphenol] | 0.79 µg/mL (≈ 1.67 µM) | 39.2%
